Assay results taken from ChEMBL document CHEMBL1139113, “Inhibition of the mitochondrial F1F0-ATPase by ligands of the peripheral benzodiazepine receptor” (Bioorg Med Chem Lett, 2007).

How the values were obtained:
Jurkat [1] = test: Induction of reactive oxygen species response in Jurkat cells at 75 uM in presence of Vitamin E after 1 hr; type: functional, Homo sapiens
[2] = Inhibition of F1F0-ATPase hydrolysis activity in bovine submitochondrial particles; parameters: species or system Bos taurus
Jurkat [3] = test: Induction of reactive oxygen species response in Jurkat cells after 1 hr; type: functional, cell-based; conditions: Homo sapiens
Ramos [4] = test: Induction of cell death in Ramos cells after 24 hrs; type: functional, cell-based; conditions: Homo sapiens
Jurkat [5] = test: Induction of reactive oxygen species response in Jurkat cells at 75 uM in presence of Mn(III)tetrakis(4-benzoic acid)porphyrin after 1 hr; type: functional, Homo sapiens
[6] = Inhibition of F1F0-ATPase synthesis activity in bovine submitochondrial particles; parameters: species or system Bos taurus
Jurkat [7] = test: Induction of reactive oxygen species response in Jurkat cells at 75 uM after 1 hr; type: functional, Homo sapiens
Jurkat [8] = test: Induction of cell death in Jurkat cells at 75 uM after 24 hrs; type: functional, Homo sapiens
Jurkat [9] = test: Induction of cell death in Jurkat cells at 75 uM in presence of Vitamin E after 24 hrs; type: functional, Homo sapiens
Ramos [10] = test: Induction of reactive oxygen species response in Ramos cells after 1 hr; type: functional, cell-based; conditions: Homo sapiens
Jurkat [11] = test: Induction of cell death in Jurkat cells after 24 hrs; type: functional, cell-based; conditions: Homo sapiens
Jurkat [12] = test: Induction of cell death in Jurkat cells at 75 uM in presence of Mn(III)tetrakis(4-benzoic acid)porphyrin after 24 hrs; type: functional, Homo sapiens

Compound: CCC(C)N(C)C(=O)c1cc2ccccc2c(-c2ccccc2Cl)n1 (stereo unspecified) [PK-11195]
- Activity (Jurkat [1]): 33.9%
- EC50 [2]: 230 µM
- EC50 (Jurkat [3]): 56 µM
- EC50 (Ramos [4]): 90 µM
- Activity (Jurkat [5]): 39.7%
- EC50 [6]: 33 µM
- Activity (Jurkat [7]): 67.9%
- Activity (Jurkat [8]): 85.5%
- Activity (Jurkat [9]): 55.9%
- EC50 (Ramos [10]): 100 µM
- EC50 (Jurkat [11]): 75 µM
- Activity (Jurkat [12]): 68.9%

Compound: CN1C(=O)CN=C(c2ccc(Cl)cc2)c2cc(Cl)ccc21 [RO-54864]
- EC50 [2]: > 300 µM
- EC50 (Jurkat [3]): 230 µM
- EC50 (Ramos [4]): 130 µM
- EC50 [6]: 210 µM
- EC50 (Ramos [10]): 180 µM
- EC50 (Jurkat [11]): > 300 µM

Compound: CN1C(=O)C(Cc2ccc3ccccc3c2)N=C(c2ccc(O)cc2)c2cc(Cl)ccc21 (stereo unspecified)
- EC50 [2]: 8.9 µM
- EC50 (Jurkat [3]): 10 µM
- EC50 (Ramos [4]): 6.3 µM
- EC50 [6]: 5.5 µM
- EC50 (Ramos [10]): 7.3 µM
- EC50 (Jurkat [11]): 6 µM

Compound: O=C1CN=C(c2ccccc2Cl)c2cc([N+](=O)[O-])ccc2N1 [CLONAZEPAM]
- EC50 [2]: 240 µM
- EC50 (Jurkat [3]): > 300 µM
- EC50 (Ramos [4]): > 300 µM
- EC50 [6]: 120 µM
- EC50 (Ramos [10]): > 300 µM
- EC50 (Jurkat [11]): > 300 µM

Compound: CN1C(=O)CN=C(c2ccccc2)c2cc(Cl)ccc21 [DIAZEPAM]
- EC50 [2]: > 300 µM
- EC50 (Jurkat [3]): 200 µM
- EC50 (Ramos [4]): 250 µM
- EC50 [6]: 210 µM
- EC50 (Ramos [10]): 170 µM
- EC50 (Jurkat [11]): 170 µM
